These results are taken from US7226944B2, “Taxanes having a C7 carbonate substituent” (FSU Research Foundation, Inc., priority 2000, dated 2007).

pIC50: −log10 of the molar value.

For orientation: melting point means the temperature, or range, at which the solid turns liquid.

The test system of one data set is HCT116. The data set is described as follows: In vitro cytotoxicity measured by the cell colony formation assay. Format: cell-based. Conditions: HCT116 cells; drug concentration producing 50% inhibition of colony formation; 72 h with drug at 37° C., colonies counted after 7 days; read-out: IN VITRO ID 50 (nm) HCT116. The protocol: Four hundred cells (HCT116) were plated in 60 mm Petri dishes containing 2.7 mL of medium (modified McCoy's 5a medium containing 10% fetal bovine serum and 100 units/mL penicillin and 100 µg/mL streptomycin). The cells were incubated in a CO2 incubator at 37° C. for 5 h for attachment to the bottom of Petri dishes. The compounds identified in Example 2 were made up fresh in medium at ten times the final concentration, and then 0.3 mL of this stock solution was added to the 2.7 mL of medium in the dish. The cells were then incubated with drugs for 72 h at 37° C. At the end of incubation the drug-containing media were decanted, the dishes were rinsed with 4 mL of Hank's Balance Salt Solution (HBSS), 5 mL of fresh medium was added, and the dishes were returned to the incubator for colony formation. The cell colonies were counted using a colony counter after incubation for 7 days.
For `C/C=C/C(=O)N[C@@H](c1ccco1)[C@@H](O)C(=O)O[C@H]1C[C@@]2(O)[C@@H](OC(=O)c3ccccc3)C3[C@](C)(C(=O)[C@H](O)C(=C1C)C2(C)C)[C@@H](OC(=O)OCC)C[C@H]1OC[C@@]31OC(C)=O` (some centres unmarked) [Compound 4818], the pIC50 is greater than 9.00.

In the case of `C/C=C/C(=O)N[C@@H](c1cccs1)[C@@H](O)C(=O)O[C@H]1C[C@@]2(O)[C@@H](OC(=O)c3ccccc3)C3[C@](C)(C(=O)[C@H](O)C(=C1C)C2(C)C)[C@@H](OC(=O)OCC)C[C@H]1OC[C@@]31OC(C)=O` (some centres unmarked) [Compound 4855], the pIC50 was greater than 9.00. As for `C/C=C/C(=O)N[C@@H](c1ccoc1)[C@@H](O)C(=O)O[C@H]1C[C@@]2(O)[C@@H](OC(=O)c3ccccc3)C3[C@](C)(C(=O)[C@H](O)C(=C1C)C2(C)C)[C@@H](OC(=O)OC)C[C@H]1OC[C@@]31OC(C)=O` (some centres unmarked) [Compound 4877], the pIC50 was greater than 9.00. For `C/C=C/C(=O)N[C@@H](c1ccoc1)[C@@H](O)C(=O)O[C@H]1C[C@@]2(O)[C@@H](OC(=O)c3ccccc3)C3[C@](C)(C(=O)[C@H](O)C(=C1C)C2(C)C)[C@@H](OC(=O)OCC)C[C@H]1OC[C@@]31OC(C)=O` (some centres unmarked) [Compound 4904], the pIC50 is greater than 8.00. Take `C/C=C/C(=O)N[C@@H](c1ccsc1)[C@@H](O)C(=O)O[C@H]1C[C@@]2(O)[C@@H](OC(=O)c3ccccc3)C3[C@](C)(C(=O)[C@H](O)C(=C1C)C2(C)C)[C@@H](OC(=O)OC)C[C@H]1OC[C@@]31OC(C)=O` (some centres unmarked) [Compound 4969]: the pIC50 was greater than 9.00.

Take `CCOC(=O)O[C@H]1C[C@H]2OC[C@@]2(OC(C)=O)C2[C@H](OC(=O)c3ccccc3)[C@]3(O)C[C@H](OC(=O)[C@H](O)[C@@H](NC(=O)OCC(C)C)c4ccsc4)C(C)=C([C@@H](O)C(=O)[C@@]21C)C3(C)C` (some centres unmarked) [Compound 4979]: the pIC50 was greater than 8.00.

With `C/C=C/C(=O)N[C@@H](c1ccsc1)[C@@H](O)C(=O)O[C@H]1C[C@@]2(O)[C@@H](OC(=O)c3ccccc3)C3[C@](C)(C(=O)[C@H](O)C(=C1C)C2(C)C)[C@@H](OC(=O)OCC)C[C@H]1OC[C@@]31OC(C)=O` (some centres unmarked) [Compound 4999], the pIC50 was greater than 9.00.

As to `CCOC(=O)O[C@H]1C[C@H]2OC[C@@]2(OC(C)=O)C2[C@H](OC(=O)c3ccccc3)[C@]3(O)C[C@H](OC(=O)[C@H](O)[C@@H](NC(=O)OC(C)(C)C)C4CC4)C(C)=C([C@@H](O)C(=O)[C@@]21C)C3(C)C` (some centres unmarked) [Compound 5165], the pIC50 is greater than 9.00.

With `COC(=O)O[C@H]1C[C@H]2OC[C@@]2(OC(C)=O)C2[C@H](OC(=O)c3ccccc3)[C@]3(O)C[C@H](OC(=O)[C@H](O)[C@@H](NC(=O)OCC(C)C)C4CC4)C(C)=C([C@@H](O)C(=O)[C@@]21C)C3(C)C` (some centres unmarked) [Compound 5211], the pIC50 was greater than 8.00. In the case of `CCOC(=O)O[C@H]1C[C@H]2OC[C@@]2(OC(C)=O)C2[C@H](OC(=O)c3ccccc3)[C@]3(O)C[C@H](OC(=O)[C@H](O)[C@@H](NC(=O)OCC(C)C)C4CC4)C(C)=C([C@@H](O)C(=O)[C@@]21C)C3(C)C` (some centres unmarked) [Compound 5225], the pIC50 was greater than 8.00. With `CC(=O)O[C@@]12CO[C@@H]1C[C@H](OC(=O)OCc1ccccc1)[C@@]1(C)C(=O)[C@H](O)C3=C(C)[C@@H](OC(=O)[C@H](O)[C@@H](NC(=O)OC(C)(C)C)c4ccco4)C[C@@](O)([C@@H](OC(=O)c4ccccc4)C12)C3(C)C` (some centres unmarked) [Compound 5433], the pIC50 is greater than 9.00. For `CC(=O)O[C@@]12CO[C@@H]1C[C@H](OC(=O)OCc1ccccc1)[C@@]1(C)C(=O)[C@H](O)C3=C(C)[C@@H](OC(=O)[C@H](O)[C@@H](NC(=O)C=C(C)C)c4ccco4)C[C@@](O)([C@@H](OC(=O)c4ccccc4)C12)C3(C)C` (some centres unmarked) [Compound 5466], the pIC50 was greater than 9.00.

As for `CCOC(=O)O[C@H]1C[C@H]2OC[C@@]2(OC(C)=O)C2[C@H](OC(=O)c3ccccc3)[C@]3(O)C[C@H](OC(=O)[C@H](O)[C@@H](NC(=O)C=C(C)C)c4ccco4)C(C)=C([C@@H](O)C(=O)[C@@]21C)C3(C)C` (some centres unmarked) [Compound 6151], the pIC50 is greater than 9.00. For `CCC(C)(C)OC(=O)N[C@@H](c1ccco1)[C@@H](O)C(=O)O[C@H]1C[C@@]2(O)[C@@H](OC(=O)c3ccccc3)C3[C@](C)(C(=O)[C@H](O)C(=C1C)C2(C)C)[C@@H](OC(=O)OCc1ccccc1)C[C@H]1OC[C@@]31OC(C)=O` (some centres unmarked) [Compound 6246], the pIC50 is greater than 9.00. The same measure, in the same setting: in the case of `C/C=C/C(=O)N[C@@H](c1cccs1)[C@@H](O)C(=O)O[C@H]1C[C@@]2(O)[C@@H](OC(=O)c3ccccc3)C3[C@](C)(C(=O)[C@H](O)C(=C1C)C2(C)C)[C@@H](OC(=O)OCc1ccccc1)C[C@H]1OC[C@@]31OC(C)=O` (some centres unmarked) [Compound 6566] it was greater than 8.00.

Staying with this data set, now noted: Homo sapiens, HCT-116; read-out: IN VITRO ID 50 (nm) HCT116.
For the compound `COC(=O)O[C@H]1C[C@H]2OC[C@@]2(OC(C)=O)C2[C@H](OC(=O)c3ccccc3)[C@]3(O)C[C@H](OC(=O)[C@H](O)[C@@H](NC(=O)OC(C)(C)C)c4cccs4)C(C)=C([C@@H](O)C(=O)[C@@]21C)C3(C)C` (some centres unmarked) [Compound 4262, 3′-Desphenyl-3′-(2-thienyl)-7-methoxycarbonyl taxotere], the pIC50 was greater than 9.00.

Test system in a further data set: not given
Assay: not given
Details: not given
`COC(=O)O[C@H]1C[C@H]2OC[C@@]2(OC(C)=O)C2[C@H](OC(=O)c3ccccc3)[C@]3(O)C[C@H](OC(=O)[C@H](O)[C@@H](NC(=O)OC(C)(C)C)c4cccs4)C(C)=C([C@@H](O)C(=O)[C@@]21C)C3(C)C` (some centres unmarked) [Compound 4262, 3′-Desphenyl-3′-(2-thienyl)-7-methoxycarbonyl taxotere] came in with a melting point of 142.5 to 143 °C.
